The source of these data is patent US20240208901A1, “Deuterated 3,3'-Diselenodipropionic Acid (DSePA) and Its Use as an Anticancer or Radioprotective Agent” (Secretary, Department of Atomic Energy, priority 2022, published 2024).

What all share (format): cell-based, human
The test system of assay [1] is A549 cells. The assay can be described thus: Clonogenic assay, combinatorial treatment with γ-irradiation in A549 cells. The procedure: Further, clonogenic assay is considered as the gold standard method for evaluating the anticancer activity of any compound and is also a good indicator of the in vivo efficacy of any anticancer compound. Therefore, the therapeutic index of DSePA and D-DSePA in A549/WI-38 cells was also validated by employing the clonogenic assay. For this, A549/WI-38 cells were treated with the varying concentrations (0.1-2 μM)/(1-500 μM) of DSePA/D-DSePA for seven days and the survival fraction was calculated by counting the number of surviving clones (FIG. 11A). The plot of survival fraction verses the concentration of DScPA/D-DSCPA was used to estimate the IC50 of above compounds to inhibit the growth of A549/WI-38 cells. […] This clearly confirmed that deuteration of DScPA reduced its toxicity in normal cells without compromising its efficacy in cancer cells. Since anticancer agents are intended to be used in combination with radiation, DSePA/D-DSePA at a treatment concentration of 0.5 μM (dose close to IC50 as determined by clonogenic assay) was combined with varying absorbed doses (2-8 Gy) of γ-irradiation and the effect of combinatorial treatment on the viability of A549 cells was determined by clonogenic assay (FIG. 12A & 12B). For this, A549 cells exposed to the varying absorbed doses (2-8 Gy) of γ-radiation were immediately treated with DScPA/D-DScPA and cultured for seven days prior to clonogenic assay. […] The D10 value of the combinatorial treatment involving DScPA estimated was 4.5 Gy (FIG. 12B). Similarly, D10 value of the combinatorial treatment involving D-DSePA estimated was 4 Gy. From these values, the dose modification factor (DMF or the ratio of the D10 of combinatorial treatment to that of D10 of radiation) of DScPA and D-DScPA estimated was 0.87±0.01 and 0.83±0.02 respectively. […] While the objective of radiotherapy is to achieve tumor control, it is also known to cause normal tissue toxicity. Previously, DSePA has been reported to protect normal cells from lethal effects of γ-radiation. Thus radio-protective activity of D-DSePA was compared with DScPA in terms of their abilities to protect non-cancerous lung fibroblast (WI-38) cells against γ-irradiation induced cell death. For this, WI-38 cells were pretreated with DSePA/D-DScPA for 24 h at an identical concentration of 0.5 μM (close to IC50 required to inhibit growth of A549 lung cancer cells by clonogenic assay) and then exposed to varying doses (2-12 Gy) of γ-irradiation. The survival of cells against radiation exposure was estimated by clonogenic assay and the dose response curve was prepared in the presence and absence of drug (DSePA/D-DScPA) (FIG. 12C & 12D). By using this dose response curve, the dose modification factor (DMF or the ratio of the D10 of radiation plus drug and D10 of radiation alone) of DSePA and D-DSePA estimated was 1.12±0.03 and 1.16±0.05 respectively.
Clonogenic assay—Clonogenic assay was performed according to the method reported previously. […] After 7 days, colonies were fixed with absolute methanol for 5 min, stained with 0.5% crystal violet for 5 min, washed with distilled water to remove excess stain and counted manually under a stereo microscope. […] The plating efficiency and the survival fraction under irradiated and drug treated conditions were calculated using following formulae: […]
The plating efficiency of A549 and WI38 cells was calculated by seeding ˜300 and ˜500 cells respectively. […]

In another assay the test system is H1975 cells. Kind of assay: MTT assay, anti-proliferative effect in H1975 cells. As to conditions: Homo sapiens, NCI-H1975, 48 h treatment, read-out: IC50 to inhibit cell proliferation. The procedure: (§1) Therefore, D-DSePA was compared with un-deuterated DSePA for its anticancer activity in A549, H1975 and H3122 cell lines which are representative of NSCLC. For this, above cells were treated with the varying concentrations (0.1-100 μM) of DSePA/D-DSePA for 48 h and the cell viability was determined by MTT assay (FIG. 9A-C). The plot of percent (%) cytotoxicity (100-% viability) versus the concentration of DSePA/D-DSePA was used to estimate the half maximum concentration (IC50) of above compounds to inhibit the proliferation of cells. […] Employing these values, the therapeutic index (IC50 in normal lung cell/IC50 in lung cancer cell) of DSePA and D-DSePA in different pairs of normal versus cancerous cells (viz., A549/WI-38, A549/WI-26 VA4, H1975/WI-38, H1975/WI-26 VA4, H3122/WI-38 and H3122/WI-26 VA4) was calculated (Table-3). […]
(§2) MTT Assay—To evaluate the anti-proliferative effect of D-DScPA and DScPA, Cells (˜5×10^3) suspended in 100 μl of complete culture medium were seeded in each well of 96 well plates. […] The percentage (%) cytotoxicity was calculated from the decrease in absorbance at 570 nm of treated groups as compared to that of control group. […] The therapeutic index was calculated by normalizing the IC50 concentration of D-DSePA/DSePA in non-cancerous cells to that in cancerous cells.

Assay [2] concerns A549 cells. The assay can be described thus: MTT assay, anti-proliferative effect in A549 cells. The following applies: Homo sapiens, 48 h treatment, read-out: IC50 to inhibit cell proliferation. The procedure:
as §1, §2

Take `O=C(O)CC[Se][Se]CCC(=O)O` [DSePA, 3,3′-diselenodipropionic acid]: in the assay on A549 cells [1] (0.5 μM drug immediately after γ-radiation (2-8 Gy)), the “dose modification factor (DMF, D10 of combinatorial treatment / D10 of radiation)” value stood at 0.87±0.01. In addition, the “D10 value (decimal reduction dose) of the combinatorial treatment” value with A549 cells [1] (γ-radiation 2-8 Gy then 0.5 μM drug immediately, seven days, radiation alone D10 5 Gy) is 4.5 Gy. Besides, the IC50 turned out to be 10.6 ± 1.1 µM with H1975 cells and 15.2 ± 1 µM with A549 cells [2].
